# Patent US9840488B2, “Carbon monoxide releasing molecules and associated methods” (Utah State University, priority 2015, dated 2017)
# Entries after “also recorded” stand apart in the source; their conditions may differ. Read-outs that look alike come from different tables or passages of the source.
# Tests used:
# [1] = format: physicochemical; conditions: for quantum yield Φ of CO-release reaction / eq. CO released: aerobic CH3CN; for eq. CO released: average of three trials
# Experimental: ^1H and ^13C{^1H} NMR spectra (in ppm) were collected using JEOL ECX-300 MHz spectrometer and are referenced to the residual solvent peak in CDCl3 (^1H: 7.26 (singlet) ppm; ^13C 77.16 (singlet) ppm) or DMSO-d6 (^1H: 2.50 ppm (quintet)). J values are given in Hz. IR spectra were collected using a Shimadzu FTIR-8400 as potassium bromide pellets. UV-vis spectra were recorded at ambient temperature using a Hewlett-Packard 8453A diode array spectrophotometer. Fluorescence emission spectra were collected using a Shimadzu RF-530XPC spectrometer in the range of 400-800 nm, with the excitation wavelength corresponding to the absorption maxima of the molecules. The excitation and emission slit widths were set at 1.5 nm for all molecules. Mass spectral data was collected at the Mass Spectrometry Facility, University of California, Riverside. ESI/APCI mass spectra were recorded on an Agilent LCTOF (2006) with a Windows XP based operating system. Elemental analyses were performed by Atlantic Microlab, Inc., Norcross, Ga., using a PE2400 automatic analyzer or at Robertson Microlit Laboratories, Ledgewood, N.J. using a Perkin Elmer CHN Analyzer Model 2400, Series II. […] Quantum yields were determined using potassium ferrioxalate or potassium reinekate as standards to measure photon flux.^[36] Carbon monoxide was quantified as previously described.^[37] […]
# A solution of 5 in CD3CN (˜3 mM) was prepared in air under minimal red light and placed in an NMR tube. The NMR tube was then covered with foil, placed in a photo reactor, and irradiated using 419 nm lamps for 24 hours.
# A solution of 5 in CD3CN (˜3 mM) was prepared under N2 in a glove box and placed in an NMR tube. The NMR tube was then placed in a photo reactor and irradiated using 419 nm lamps for 24 hours. […]
# [2] = test system: Jurkat (JM) cells; experiment: MTT cell viability assay, Jurkat cells; format: cell-based, human
# Experimental: (§1) Jurkat (JM) cells were maintained as previously described by Shorey et al.^[39] A549 human adenocarcinoma cells (ATCC, Manassas, Va.) cells were grown in DMEM/Ham's F-12 1:1 mixture medium supplemented with 10% charcoal-stripped, heat-inactivated fetal bovine serum (FBS; Caisson Laboratories, Logan, Utah) in a humidified incubator at 37° C. with 5% CO2. Cytotoxicity was determined by the colorimetric MTT [3-(4,5-dimethyl-2-thiazolyl)-2,5-diphenyl-2H-tetrazoluim bromide] assay as previously describe.^[40] Briefly, 2.1×10^3 cells/ml for A549 cells or 1×10^5 cells/ml for Jurkat cells. Test compounds were prepared in DMSO, then added to culture media for a maximum final DMSO concentration not greater than 0.1% (v/v). After addition of test compounds at concentrations ranging from 80 nM to 100 μM, cells were incubated for 24 h in the dark, then treated with MTT to assess cell viability as outlined previously.^[40] All experiments were independently replicated three times, and each experimental treatment was performed in triplicate.
# [3] = test system: A549 cells; experiment: Cellular uptake by fluorescence microscopy; format: cell-based, human
# Experimental: A549 cells were maintained in culture as described above, then seeded into seeded into Millicell E-Z-Slide culture chambers (EMD Millipore, Billerica, Mass.) at an initial density of 7.5×10^4 cells/cm^2 and allowed to adhere to the chamber slides for 24 hr. The cells were then treated for 1 hr with the nuclear dye Hoechst 33342 (0.5% v/v) for 10 min, followed by three washes with plain culture media to remove residual dye. All of incubation and wash steps described below were performed in the dark with minimal light exposure. A 100 mM stock solution of compound 5 was prepared in DMSO and then diluted to a working concentration of 2 mM in culture media (DMEM/Ham's F-12). The compound 5 working stock was diluted again to a final concentration of 50 μM in the culture chamber media, and the cells were incubated for 1 hr. The culture chamber was then gently washed thrice with plain culture media. Cells were fixed with a 1:10 (v/v) solution of formaldehyde fixative (Immunochemistry Technologies, Bloomington, Minn.) and culture media for 5 min, then washed twice with plain culture media. Finally, cells were imaged using a Zeiss Axio Observer inverted microscope (Carl Zeiss Microscopy, Thornwood, N.Y.) equipped with fluorescence detection. Images were acquired using a 10× objective with excitation λ of 450-490 nm (BP 470/40 filter) and emission λ of 500-550 nm (BP 525/50 filter) for detection of compound 5 in A549 cells following 30 sec, 3 min or 10 min exposure to visible light. Also, for localization of the Hoechst dye, a single fluorescence image was acquired at excitation λ at 365 nm; emission λ of 420-470 nm (BP 445/50 filter). Acquired images were universally adjusted to enhance contrast levels (same settings for all acquired images for each detection channel) using Adobe Photoshop CS6 (Adobe, San Jose, Calif.).
# [4] = test system: S. aureus (ATCC 33591-MRSA); experiment: Minimum inhibitory concentration, blue light vs dark; format: cell-based; design: key to Minimum inhibitory concentration (MIC): †: No inhibitory effect against bacterial strain
# [5] = test system: S. aureus (ATCC 25923); experiment: as above; format: cell-based; design: key to Minimum inhibitory concentration (MIC): †: No inhibitory effect against bacterial strain
# [6] = test system: A549 human adenocarcinoma cells; experiment: MTT cell viability assay, A549 cells; format: cell-based
# Experimental: as §1
# [7] = test system: E. coli (ATCC 25922); experiment: Minimum inhibitory concentration, blue light vs dark; format: cell-based; design: key to Minimum inhibitory concentration (MIC): †: No inhibitory effect against bacterial strain
# [8] = Solubility and solution stability
# [9] = target: T1, bovine serum albumin (BSA) (Bos taurus, UniProt P02769); experiment: BSA binding by fluorescence quenching, competitive binding and docking
# T1 sequence (P02769 25-607): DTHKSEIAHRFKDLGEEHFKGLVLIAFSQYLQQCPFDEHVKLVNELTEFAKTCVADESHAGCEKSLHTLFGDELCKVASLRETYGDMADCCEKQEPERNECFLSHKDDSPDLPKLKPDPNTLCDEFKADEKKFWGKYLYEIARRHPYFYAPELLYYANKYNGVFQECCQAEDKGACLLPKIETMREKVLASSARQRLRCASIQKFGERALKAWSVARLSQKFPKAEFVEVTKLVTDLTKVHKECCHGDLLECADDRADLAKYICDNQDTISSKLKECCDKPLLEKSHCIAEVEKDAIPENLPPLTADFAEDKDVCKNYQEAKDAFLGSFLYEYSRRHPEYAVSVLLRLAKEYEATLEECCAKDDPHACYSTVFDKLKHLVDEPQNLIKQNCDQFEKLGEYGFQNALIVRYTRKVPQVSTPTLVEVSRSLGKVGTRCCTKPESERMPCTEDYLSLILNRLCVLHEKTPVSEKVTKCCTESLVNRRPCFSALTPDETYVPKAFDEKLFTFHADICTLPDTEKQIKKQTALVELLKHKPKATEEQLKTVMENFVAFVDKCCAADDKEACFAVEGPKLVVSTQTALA
# [10] = target: T1, bovine serum albumin (BSA); conditions: literature value, cited from earlier work
compound,measurement,setting,value
3-acetate-2-phenyl-benzo[g]chromen-4-one [Compound 12],stability to visible light relative to 5,[1],significantly more stable
"O=c1c(O)c(-c2ccccc2)oc2ccccc12 [3-hydroxyflavone, reference compound]",eq. CO generated,"[1]; photoinduced reaction with O2, λirr=300 nm",0.95 eq
"O=c1c(O)c(-c2ccccc2)oc2cc3ccccc3cc12 [Compound 5, 3-Hydroxy-2-phenyl-benzo[g]chromen-4-one]",toxicity by MTT cell viability assay,[2],minimal toxicity
same,cellular uptake / cell permeability,"[3]; 50 μM, 1 hr incubation",cell permeable; also recorded: taken up by almost all cells
same,intracellular localization,[3]; 1 hr incubation,localized primarily to the cytoplasm
same,loss of green fluorescence in cells on exposure to visible light,[3]; ten minutes visible light,complete loss
same,Minimum inhibitory concentration (MIC),[4]; Dark Conditions,†
same,MIC,"[4]; Staphylococcus aureus, Light Conditions (blue light)",55.5 µg/mL
same,Minimum inhibitory concentration (MIC),[5]; Dark Conditions,†
same,MIC,"[5]; Staphylococcus aureus, ATCC25923, Light Conditions (blue light)",39.4 µg/mL
same,toxicity by MTT cell viability assay,[6],minimal toxicity
same,IC50,"[6]; Homo sapiens, 24 h in the dark, MTT",41.5 µM
same,Minimum inhibitory concentration (MIC),[7]; Dark Conditions,†
same,MIC,"[7]; Escherichia coli, ATCC25922, Light Conditions (blue light)",27.8 µg/mL
same,melting point,,208 to 210 °C
same,dark control reaction,"[1]; CD3CN in air, tube covered with foil, 419 nm lamps, 24 hours, 1H NMR",no reaction had occurred
same,anaerobic control reaction,"[1]; CD3CN under N2, 419 nm lamps, 24 hours, 1H NMR",no reaction had occurred
same,quantum yield Φ of CO-release reaction,[1]; 419 nm irradiation,0.007(3)
same,eq. CO released,[1]; 419 nm irradiation,0.96(2) eq
same,decrease in the rate of light induced CO-release on binding to BSA,[1]; compound bound to BSA,two-fold
same,photoinduced CO-release reaction in other solvents,"[1]; methanol and 1:1 H2O:DMSO, 1H NMR and GC head space gas analysis",same reaction occurs
same,solubility in aqueous DMSO,"[8]; 1:1 H2O:DMSO, 0.1% DMSO/RPMI cell culture media",soluble
same,solubility in organic solvents,"[8]; CH3CN, CH2Cl2, CHCl3, DMSO",readily soluble
same,solution stability in the presence of ambient O2,"[8]; acetonitrile, 1:1 DMSO:H2O, or 0.1% DMSO:cell culture media (RPMI-1640; pH=7.4), protected from light",> 2 weeks
same,binding site on BSA,"[9]; competitive binding with warfarin and ibuprofen, AutoDock Vina docking",site 1 (subdomain II A)
same,binding affinity to BSA,"[9]; fluorescence quenching, single binding site",3200 M⁻¹
"O=C(Oc1cc2ccccc2cc1C(=O)O)c1ccccc1 [Compound 6, 3-(benzoyloxy)-2-naphthoic acid]",toxicity by MTT cell viability assay,[2],completely non-toxic
same,toxicity by MTT cell viability assay,[6],completely non-toxic
"CCN(CC)c1ccc(-c2oc3cc4ccccc4cc3c(=O)c2O)cc1 [Compound 7, 2-(4-(diethylamino)phenyl)-3-hydroxy-4H-benzo[g]chromen-4-one]",melting point,,191 to 192 °C
same,quantum yield Φ of CO-release reaction,[1]; 419 nm irradiation,0.006(1)
same,eq. CO released,[1]; 419 nm irradiation,0.99(1) eq
"Oc1c(-c2ccccc2)oc2cc3ccccc3cc2c1=S [Compound 8, 3-Hydroxy-2-phenyl-4H-benzo[g]chromene-4-thione]",quantum yield Φ of CO-release reaction,[1]; 419 nm irradiation,0.426(3)
same,eq. CO released,[1]; 419 nm irradiation,1.01(1) eq
"CCN(CC)c1ccc(-c2oc3cc4ccccc4cc3c(=S)c2O)cc1 [Compound 9, 2-(4-(diethylamino)phenyl)-3-hydroxy-4H-benzo[g]chromene-4-thione]",quantum yield Φ of CO-release reaction,[1]; >546 nm irradiation,0.20(1)
same,eq. CO released,[1]; >546 nm irradiation,1.01(1) eq
COc1cccc2c1C(=O)c1c(O)c3c(c(O)c1C2=O)C[C@@](O)(C(=O)CO)C[C@@H]3O[C@H]1C[C@H](N)[C@H](O)[C@H](C)O1 [doxorubicin],binding affinity to BSA,[10],7300 M⁻¹
O=c1c(O)c(-c2ccc(O)c(O)c2)oc2cc(O)cc(O)c12 [quercetin],binding affinity to BSA,[10]; unit not given,3.65×10^7
